Values after ≈ are worked out from the molar mass of the structure shown. Like-named read-outs stand apart in the source and are kept apart here.
Columns and labels:
[1] = Acid resistance (half-life period); format: physicochemical
Protocol: (§1) All compounds of this group were prepared in the form of sodium salts. Bactericidal activity, degree of hydrolysis with staphylococc penicillinase and acid resistance of the penicillins were determined.

Staph. aureus 209p = assay: Minimal bacteriostatic concentration; format: cell-based; details: Staphylococcus aureus, sodium salts
Protocol: as §1

Staph. albus = assay: Minimal bacteriostatic concentration; format: cell-based; details: sodium salts
Protocol: as §1

E.coli O-55 = assay: Minimal bacteriostatic concentration; format: cell-based; details: Escherichia coli
Protocol: as §1

Sh.dysenteriae Flexneri = assay: Minimal bacteriostatic concentration; format: cell-based; details: Shigella dysenteriae, read-out: Minimal Bacteriostatic Concentration
Protocol: as §1

Ps.aeruginosa = assay: Minimal bacteriostatic concentration; format: cell-based; details: Pseudomonas aeruginosa, sodium salts
Protocol: as §1

Vibrion Metschnicoff = assay: Minimal bacteriostatic concentration; format: cell-based; details: read-out: Minimal Bacteriostatic Concentration
Protocol: as §1

B.Subtitis ATCC6633 = assay: Minimal bacteriostatic concentration; format: cell-based; details: sodium salts
Protocol: as §1

Strept. pyrogenes = assay: Minimal bacteriostatic concentration; format: cell-based; details: sodium salts
Protocol: as §1

E.typhi = assay: Minimal bacteriostatic concentration; format: cell-based; details: read-out: Minimal Bacteriostatic Concentration
Protocol: as §1

[2] = tested on: Staph. aureus 209p (adapted to benzylpenicillin); assay: Minimal bacteriostatic concentration; format: cell-based; details: Staphylococcus aureus, read-out: Minimal Bacteriostatic Concentration
Protocol: as §1

Myco smegmatis = assay: Minimal bacteriostatic concentration; format: cell-based; details: sodium salts
Protocol: as §1

Prot.vulgaris = assay: Minimal bacteriostatic concentration; format: cell-based; details: Proteus vulgaris, sodium salts
Protocol: as §1

[3] = target: T1, staphylococc penicillinase (Staphylococcus aureus, UniProt P00807); assay: Hydrolysis/inactivation by staphylococc penicillinase; format: biochemical; details: for Quantity of inactivated units of compounds under the action of 1 unit of staphylococc penicillinase: Table 5
Protocol: as §1
The substitution of propoxy radical for iso-radical in this position is not accompanied by areduction of penicillin stability against penicillinase which is not observed in the orto- and para-positions. During the subsequent hours of inactivation the rate of hydrolysis of penicillins slightly increases. However, even when observed in dynamics, their stability against penicillianase still persists during 4-hour-inactivation.

in vivo = details: mouse, iv
[4] = target: T1, staphylococc penicillinase; details: cited from earlier work
[5] = acid ph 1.3, pH 1.3, under conditions of our experiments, read-out: half-life period
[6] = O55, read-out: Minimal Bacteriostatic Concentration
[7] = Vibrion Metschnicoff, sodium salts
[8] = O55, E.coli O-55, sodium salts, read-out: Minimal Bacteriostatic Concentration
[9] = acid ph 1.3, Temperature 37° C, pH 1.3, Table 1, cyclopentyl series, read-out: τ1/2 half-life period (acid resistance)

T1 sequence (P00807 25-281): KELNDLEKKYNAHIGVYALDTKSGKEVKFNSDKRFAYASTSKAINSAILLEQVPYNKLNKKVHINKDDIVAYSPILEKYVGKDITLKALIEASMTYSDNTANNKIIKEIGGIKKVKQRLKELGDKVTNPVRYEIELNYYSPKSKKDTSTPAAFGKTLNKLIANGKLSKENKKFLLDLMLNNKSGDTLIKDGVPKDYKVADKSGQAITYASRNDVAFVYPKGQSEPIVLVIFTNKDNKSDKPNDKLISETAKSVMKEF

SMILES	half-life [1, 5]	MIC (Staph. aureus 209p)	MIC (Staph. albus)	MIC (E.coli O-55; [6])	MIC (Sh.dysenteriae Flexneri)	MIC (Ps.aeruginosa)	MIC (Vibrion Metschnicoff; [7])	MIC (B.Subtitis ATCC6633)	MIC (Strept. pyrogenes)	MIC (E.typhi)	MIC [2]	MIC (Myco smegmatis)	MIC (Prot.vulgaris)	MIC (E.coli O-55; [8])	MIC (Vibrion Metschnicoff)	Quantity of inactivated units of compounds under the action of 1 unit of staphylococc penicillinase [3]	stability against penicillinase ([3]; during the first hour after inactivation, 60 min)	MTD (in vivo)	half-life [1, 9]	penicillinase resistance (background statement) [4]
CC1(C)S[C@@H]2[C@H](NC(=O)Cc3ccccc3)C(=O)N2[C@H]1C(=O)O [Benzyl Penicillin, benzylpenicillin, reference compound]	2.1 min	0.012 µg/mL	0.006 µg/mL	31.2 µg/mL (≈ 93.3 µM)	3.12 µg/mL (≈ 9.33 µM)	> 500 µg/mL	0.78 µg/mL	0.048 µg/mL	0.003 µg/mL	0.39 µg/mL (≈ 1.17 µM)	> 500 µg/mL	> 500 µg/mL	1.56 µg/mL	–	–	–	–	–	–	–
CC1(C)SC2C(NC(=O)C3(c4ccccc4)CCCC3)C(=O)N2C1C(=O)O (centres unmarked) [Compound I (Table 1), 1-Phenylcyclopentyl-1-Penicillin]	26 min	0.048 µg/mL	0.048 µg/mL	–	125 µg/mL (≈ 322 µM)	> 500 µg/mL	–	0.09 µg/mL	0.012 µg/mL	62.5 µg/mL (≈ 161 µM)	> 500 µg/mL	> 500 µg/mL	250 µg/mL	500 µg/mL	0.24 µg/mL (≈ 0.618 µM)	0 units	100%	500 mg/kg	–	–
COc1ccccc1C1(C(=O)NC2C(=O)N3C2SC(C)(C)C3C(=O)O)CCCC1 (centres unmarked) [Compound II (Table 1)]	–	0.9 µg/mL	0.9 µg/mL	–	62.5 µg/mL (≈ 149 µM)	> 500 µg/mL	–	3.9 µg/mL	0.78 µg/mL	62.5 µg/mL (≈ 149 µM)	> 500 µg/mL	> 500 µg/mL	500 µg/mL	250 µg/mL	–	28.8 units	–	2000 mg/kg	187 min	–
CCOc1ccccc1C1(C(=O)NC2C(=O)N3C2SC(C)(C)C3C(=O)O)CCCC1 (centres unmarked) [Compound III (Table 1)]	–	0.78 µg/mL	0.39 µg/mL	–	125 µg/mL (≈ 289 µM)	> 500 µg/mL	0.9 µg/mL	7.8 µg/mL	0.78 µg/mL	62.5 µg/mL (≈ 144 µM)	> 500 µg/mL	> 500 µg/mL	500 µg/mL	500 µg/mL	–	20.5 units	–	1000 mg/kg	102 min	–
CCCOc1ccccc1C1(C(=O)NC2C(=O)N3C2SC(C)(C)C3C(=O)O)CCCC1 (centres unmarked) [Compound IV (Table 1)]	–	0.19 µg/mL	0.39 µg/mL	–	125 µg/mL (≈ 280 µM)	> 500 µg/mL	0.9 µg/mL	15.6 µg/mL	0.39 µg/mL	62.5 µg/mL (≈ 140 µM)	> 500 µg/mL	> 500 µg/mL	500 µg/mL	> 125 µg/mL	–	20.45 units	–	1500 mg/kg	14.9 min	–
CCCOc1cccc(C2(C(=O)NC3C(=O)N4C3SC(C)(C)C4C(=O)O)CCCC2)c1 (centres unmarked) [Compound IX (Table 1), 1-(m-propoxyphenyl)Cyclopentyl-1-Penicillin]	–	0.39 µg/mL	0.19 µg/mL	250 µg/mL (≈ 560 µM)	62.5 µg/mL (≈ 140 µM)	> 500 µg/mL	3.9 µg/mL	0.9 µg/mL	0.39 µg/mL	15.6 µg/mL (≈ 34.9 µM)	> 500 µg/mL	> 500 µg/mL	125 µg/mL	–	–	10.6 units	–	1500 mg/kg	222 min	–
CC(C)Oc1ccccc1C1(C(=O)NC2C(=O)N3C2SC(C)(C)C3C(=O)O)CCCC1 (centres unmarked) [Compound V (Table 1)]	–	0.39 µg/mL	0.39 µg/mL	–	250 µg/mL (≈ 560 µM)	> 500 µg/mL	0.9 µg/mL	7.8 µg/mL	0.78 µg/mL	125 µg/mL (≈ 280 µM)	> 500 µg/mL	> 500 µg/mL	500 µg/mL	500 µg/mL	–	12.0 units	–	1000 to 1500 mg/kg	10.3 min	–
CCCCOc1ccccc1C1(C(=O)NC2C(=O)N3C2SC(C)(C)C3C(=O)O)CCCC1 (centres unmarked) [Compound VI (Table 1), 1-(o-Butoxyphenyl)Cyclopentyl-1-Pencillin]	–	0.39 µg/mL	0.19 µg/mL	–	250 µg/mL (≈ 543 µM)	> 500 µg/mL	1.56 µg/mL	15.6 µg/mL	0.39 µg/mL	125 µg/mL (≈ 271 µM)	> 500 µg/mL	> 500 µg/mL	500 µg/mL	500 µg/mL	–	16.6 units	–	1000 mg/kg	14.8 min	–
COc1cccc(C2(C(=O)NC3C(=O)N4C3SC(C)(C)C4C(=O)O)CCCC2)c1 (centres unmarked) [Compound VII (Table 1)]	–	0.39 µg/mL	0.39 µg/mL	–	125 µg/mL (≈ 299 µM)	> 500 µg/mL	–	1.56 µg/mL	0.39 µg/mL	–	> 500 µg/mL	> 500 µg/mL	125 µg/mL	250 µg/mL	–	14.2 units	–	2500 mg/kg	288 min	–
CCOc1cccc(C2(C(=O)NC3C(=O)N4C3SC(C)(C)C4C(=O)O)CCCC2)c1 (centres unmarked) [Compound VIII (Table 1)]	–	0.39 µg/mL	0.19 µg/mL	250 µg/mL (≈ 578 µM)	125 µg/mL (≈ 289 µM)	> 500 µg/mL	3.9 µg/mL	0.9 µg/mL	0.39 µg/mL	31.2 µg/mL (≈ 72.1 µM)	> 500 µg/mL	> 500 µg/mL	250 µg/mL	–	–	10.0 units	–	1500 mg/kg	189 min	–
CC(C)Oc1cccc(C2(C(=O)NC3C(=O)N4C3SC(C)(C)C4C(=O)O)CCCC2)c1 (centres unmarked) [Compound X (Table 1)]	–	0.39 µg/mL	0.19 µg/mL	250 µg/mL (≈ 560 µM)	62.5 µg/mL (≈ 140 µM)	> 500 µg/mL	3.9 µg/mL	7.8 µg/mL	0.19 µg/mL	15.6 µg/mL (≈ 34.9 µM)	> 500 µg/mL	> 500 µg/mL	250 µg/mL	–	–	27.5 units	–	1500 mg/kg	25.9 min	–
CCCCOc1ccc(C2(C(=O)NC3C(=O)N4C3SC(C)(C)C4C(=O)O)CCCC2)cc1 (centres unmarked) [Compound XVI (Table 1)]	–	0.39 µg/mL	0.19 µg/mL	125 µg/mL (≈ 271 µM)	62.5 µg/mL (≈ 136 µM)	> 500 µg/mL	0.48 µg/mL	0.24 µg/mL	0.048 µg/mL	15.6 µg/mL (≈ 33.9 µM)	–	> 500 µg/mL	125 µg/mL	–	–	23.3 units	–	1500 mg/kg	43.2 min	–
COc1cccc(OC)c1C(=O)N[C@@H]1C(=O)N2[C@@H]1SC(C)(C)[C@@H]2C(=O)O [methycillin]	–	–	–	–	–	–	–	–	–	–	–	–	–	–	–	–	–	–	–	penicillinase resistant
